# Experimental data reported in US7485651B2, “Compounds with activity on muscarinic receptors” (Acadia Pharmaceuticals, Inc., priority 1998, dated 2009).
# Target: T1, m1 receptor (Homo sapiens, UniProt P11229)
# T1 construct: expressed in transfected cells; host or cells: NIH 3T3 (ATCC CRL 1658)
# T1 sequence (P11229 1-460): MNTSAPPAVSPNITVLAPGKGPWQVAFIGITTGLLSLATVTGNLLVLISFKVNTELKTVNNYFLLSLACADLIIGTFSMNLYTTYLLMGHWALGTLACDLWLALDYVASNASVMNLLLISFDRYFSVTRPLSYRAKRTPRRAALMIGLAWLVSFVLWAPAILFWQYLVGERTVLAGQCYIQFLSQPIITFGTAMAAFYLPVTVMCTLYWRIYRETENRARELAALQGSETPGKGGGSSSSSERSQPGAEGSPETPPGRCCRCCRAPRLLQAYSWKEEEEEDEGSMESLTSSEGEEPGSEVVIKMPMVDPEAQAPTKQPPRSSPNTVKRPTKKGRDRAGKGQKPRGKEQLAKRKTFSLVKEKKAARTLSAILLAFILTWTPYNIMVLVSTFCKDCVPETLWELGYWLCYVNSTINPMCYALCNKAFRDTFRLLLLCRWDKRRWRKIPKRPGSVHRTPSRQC
# Test: R-SAT / NIH 3T3 cells transfected with m1 muscarinic receptor
# Assay type: cell-based
# Procedure: Cell amplification is detected as increased levels of a marker also expressed by the cells.
# The cells were treated with trypsin-EDTA, spun down and plated at 2×10^6 per 15 cm dish in 20 m1 of DMEM containing 10% calf serum.
# On day one, the cells were transfected using the Superfect transfection reagent (available from Qiagen, Valencia, Calif.) in accordance with the manufacturer's instructions. Receptor DNA, β-gal DNA (pSI-β-galactosidase available from Promega, Madison, Wis.), chimeric Gq-i5 DNA for the m2 and m4 receptor subtype assays, and salmon sperm DNA (available from Sigma, St. Louis, […].) as filler to a total of 20 μg DNA was added per plate. Prior to addition to the plates, 60 μl Superfect was added to the DNA and mixed thoroughly by pipetting up and down several times. The mixture was incubated at room temperature for 10-15 minutes. The media were aspirated, and 12 ml fresh DMEM containing 10% calf serum and 50 units/m1 penicillin/streptomycin was added to the plates. The DNA-Superfect solution was mixed once more with a pipette and added to the plate which was swirled to distribute the DNA mixture evenly over the surface. The cells were incubated overnight at 37° C. and 5% CO2. After incubation, the media were aspirated and the plates were rinsed once with a 15 m1 volume of Hank's Buffered Saline. The plates were swirled to ensure thorough rinsing. 20 m1 fresh DMEM supplemented with 10% calf serum and 50 units/m1 penicillin/streptomycin was added to the plates. The cells were incubated for 24-48 hours until the plates were 100% confluent.
# Assay of NIH 3T3 cells transfected with muscarinic receptor subtypes (general procedure) DMEM containing 2% Cyto-SF3 was heated at 37° C. in a water bath under sterile conditions. Sterile working stock solutions of test compounds to be assayed were prepared by diluting the compounds in DMEM to 8× the final concentration for testing. The compound (carbachol) to be included in the assay as a positive control was also diluted in DMEM to 8× the final concentration. 50 μL of the DMEM containing 2% Cyto-SF3 was added to each well of 96-well microtiter plates under sterile conditions. Then, 16 of compound solutions were added to the top wells of the plates, and dilution of the solutions was performed by taking 16 μl of the compound solutions from the top wells and pipetting them into the next row of wells. This procedure was repeated with each subsequent row of wells, except that 50 μl medium alone was added to the baseline control wells (the wells that contain medium and cells, but not test compounds) and plate control wells (wells containing medium, but not test compounds and cells). The plates were then placed in an incubator at 37° C. to equilibrate temperature and pH.
# When the cell cultures had reached 100% confluence, the medium was aspirated and each plate was rinsed with 15 m1 Hank's Buffered Saline (HBS). The cells were left in the incubator for about 10-15 minutes until the HBS had turned slightly yellow. The HBS was then aspirated and 1 m1 trypsin was added to each plate and swirled so as to completely cover the plates. The edges of the plates were gently rapped several times to loosen the cells. After the cells had been dislodged from the surface, 8 m1 DMEM containing 10% calf serum and 50 units/m1 penicillin and 50 units/m1 streptomycin was added to inhibit the trypsin. The plates were rinsed with this medium, and the cells were pipetted into a tube. The cells were centrifuged at 1000 rpm for 5-10 min. in an IEC Centra CL2 centrifuge (produced by Sorvall). Afterwards, the medium was carefully aspirated so as not to dislodge the cells. The cell pellet was suspended in 1600 μl DMEM containing 10% calf serum and 50 units/m1 penicillin and 50 units/m1 streptomycin, after which 20 m1 DMEM supplemented with 2% Cyto-SF3 was added. 50 μl aliquots of this cell suspension was added to the wells of the 96-well microtiter plates prepared above (except for the plate control wells).
structure (smiles),measurement,setting,value
"CCCCC1CCN(CCCC(=O)c2ccccc2C)CC1 [Compound A, 4-n-Butyl-1-[4-(2-methylphenyl)-4-oxo-1-butyl]piperidine]",Emax at 1.5 µM,"NIH3T3, m1, compound at 1.5 μM, maximum = response to 10 μM carbachol, read-out: Cellular response as a percentage of the maximum response of the cells",107%
same,antagonism of carbachol-induced responses,m1,not an antagonist
same,maximal response relative to reference compound carbachol,m1 receptor,lower maximal response than the reference compound carbachol
same,agonist activity at the m1 receptor,receptor transfected into separate cell cultures,potent partial agonist
